Results on ten compounds are retold here after US5252580A, “Indole derivatives and anti-ulcer compositions thereof” (priority 1991, dated 1993).

The target in one series is T1, H^+ /K^+ ATPase (Sus scrofa, UniProt P19156).
T1 construct: prepared from the stomach of pig; from tissue; host or cells: pig stomach
As to the kind of experiment: H^+ /K^+ ATPase Inhibitory Activity Assay. The settings on record: pig stomach enzyme, 37° C., pH 6.2; for inhibition at 10 µg/mL: 10 μg/ml. Format: biochemical. Here is the method: H^+ /K^+ ATPase Inhibitory Activity Assay
The inhibitory activity was determined in the following manner using H^+ /K^+ ATPase prepared from the stomach of pig.
H^+ /K^+ ATPase dilute solution (100 μl, 50 μg as protein) was added to PIPES-tris (pH 6.2) buffer solution (440 μl) containing 4 mM magnesium chloride and 20 mM potassium chloride. Further, 0.1% ethanol solution of nigericin (5 μl) was added. To the solution was added dimethyl sulfoxide (5 μl) and the mixture was incubated at 37° C. for 30 minutes. Then 10 mM PIPES-tris buffer solution (450 μl) containing 4 mM ATP disodium was added to initiate the reaction. 30 minutes later, 50% trichloroacetic acid (1 μl) was added to cease the reaction. The amount of phosphorus released in this reaction was determined by a color development determination at 800 nm according to D. Lebel, G. Poirier et al. method (Anal. Biochem. 85, 86-89, 1978), at which the reading of the absorbance is taken as C1. On the other hand, a similar determination was carried out in the absence of potassium chloride, at which the reading of the absorbance is taken as C2. The inhibitory activity was determined by a similar procedure as in the above reaction, but adding 5 μl of a dimethyl sulfoxide solution containing 1 to 20 mg/ml of the inhibiting substance (test compound), instead of dimethyl sulfoxide. In that case, the readings of the absorbance in the presence and absence of potassium chloride are taken as T1 and T2, respectively.
% Inhibition (I) of the inhibiting substance (test compound) is calculated by the following equation.

For series [1] the following is noted: background statement; cited from earlier work.

T1 sequence (P19156 2-1034 limits assumed): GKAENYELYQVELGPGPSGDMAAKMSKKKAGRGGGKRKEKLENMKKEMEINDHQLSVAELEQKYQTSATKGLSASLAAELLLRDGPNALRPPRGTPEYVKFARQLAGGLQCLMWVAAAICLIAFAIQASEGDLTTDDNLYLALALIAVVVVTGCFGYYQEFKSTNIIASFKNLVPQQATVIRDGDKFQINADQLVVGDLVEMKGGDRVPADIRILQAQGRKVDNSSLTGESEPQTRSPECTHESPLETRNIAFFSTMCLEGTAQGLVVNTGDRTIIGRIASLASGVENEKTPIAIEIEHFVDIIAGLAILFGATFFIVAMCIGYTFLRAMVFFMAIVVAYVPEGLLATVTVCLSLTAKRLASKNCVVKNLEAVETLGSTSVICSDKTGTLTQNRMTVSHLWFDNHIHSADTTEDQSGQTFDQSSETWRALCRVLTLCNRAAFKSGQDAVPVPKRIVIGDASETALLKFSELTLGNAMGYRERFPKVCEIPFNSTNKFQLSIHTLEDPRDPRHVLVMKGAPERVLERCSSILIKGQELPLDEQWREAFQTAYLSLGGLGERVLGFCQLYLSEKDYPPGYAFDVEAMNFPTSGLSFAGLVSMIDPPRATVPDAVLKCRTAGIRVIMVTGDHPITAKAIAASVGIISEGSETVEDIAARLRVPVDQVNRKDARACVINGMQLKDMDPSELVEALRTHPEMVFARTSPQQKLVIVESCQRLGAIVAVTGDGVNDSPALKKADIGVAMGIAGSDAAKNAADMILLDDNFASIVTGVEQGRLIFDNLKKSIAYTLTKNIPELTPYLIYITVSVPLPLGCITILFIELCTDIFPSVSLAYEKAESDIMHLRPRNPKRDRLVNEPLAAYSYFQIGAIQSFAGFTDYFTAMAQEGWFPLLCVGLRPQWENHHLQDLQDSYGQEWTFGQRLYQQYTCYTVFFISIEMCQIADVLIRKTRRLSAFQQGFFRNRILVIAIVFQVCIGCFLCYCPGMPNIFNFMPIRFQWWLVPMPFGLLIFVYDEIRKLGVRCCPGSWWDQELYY
T1 sequence (P18434 whole entry partner): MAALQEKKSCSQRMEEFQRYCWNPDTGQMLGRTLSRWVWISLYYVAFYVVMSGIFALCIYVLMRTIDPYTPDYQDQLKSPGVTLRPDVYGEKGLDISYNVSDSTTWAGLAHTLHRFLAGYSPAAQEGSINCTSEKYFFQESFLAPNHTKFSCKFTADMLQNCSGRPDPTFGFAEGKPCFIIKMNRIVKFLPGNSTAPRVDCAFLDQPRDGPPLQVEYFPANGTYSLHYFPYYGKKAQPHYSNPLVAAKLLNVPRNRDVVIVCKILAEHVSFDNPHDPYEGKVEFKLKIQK

Turning to `CCN1CCC2c3cc(C(C)c4[nH]c5ccccc5c4CCN(Cc4ccccc4)C(=O)OCc4ccccc4)ccc3N(CC)C2C1` (stereo not shown) [Example 19, 6-(1-(3-(2-Benzyl(benzyloxycarbonyl)aminoethyl)-indole-2-yl)ethyl)-2,9-diethyl-1,2,3,4,4a,9a-hexahydro-pyrido[3,4-b]indole], at 10 µg/mL the inhibition against H^+ /K^+ ATPase was 92.5%. Same read-out and setting: the same measure for `CCN1CCC2c3cc(C4CCCN(C(=O)OCc5ccccc5)CCc5c4[nH]c4ccccc54)ccc3N(CC)C2C1` (stereo not shown) [Example 11, 6-(3-Benzyloxycarbonyl-1,2,4,5,6,7-hexahydro-3H-azonino[5,4-b]indole-7-yl)-2,9-diethyl-1,2,3,4,4a,9a-hexahydropyrido[3,4-b]indole]: 97.5%. Consider `COc1ccc2[nH]c([S+]([O-])Cc3ncc(C)c(OC)c3C)nc2c1` (stereo not shown) [Omeprazole], for which the “occurrence of side effects” value in series [1] is on record as “occurrence of carcinoid”. With `CN1CC[C@H]2c3cc(C4CCCN(C(=O)OCc5ccccc5)CCc5c4[nH]c4ccccc54)ccc3N(C)[C@H]2C1` (stereo partly drawn) [Example 1, 4a,9a-cis-6-(3-Benzyloxycarbonyl-1,2,4,5,6,7-hexahydro-3H-azonino[5,4-b]indole-7-yl)-2,9-dimethyl-1,2,3,4,4a,9a-hexahydro-pyrido[3,4-b]indole], at H^+ /K^+ ATPase, testing at 10 µg/mL gave an inhibition of 54.9%. `CCN1CCC2c3cc(C(O)c4c(CCOCc5ccccc5)c5ccccc5n4Cc4ccccc4)ccc3N(CC)C2C1` (stereo not shown) [Example 39, 2,9-Diethyl-6-(3-(2-benzyloxyethyl)-1-benzyl-indole-2-yl)hydroxymethyl-1,2,3,4,4a,9a-hexahydro-pyrido[3,4-b]indole] came in with an inhibition at 10 µg/mL against H^+ /K^+ ATPase of 78.8%.

`CCN1CCC2c3cc(C(O)c4c(CCc5ccccn5)c5ccccc5n4S(=O)(=O)c4ccc(C)cc4)ccc3N(CC)C2C1` (stereo not shown) [Example 40]: at H^+ /K^+ ATPase, at 10 µg/mL the inhibition was 24.4%. For `CCOC(=O)N1CCCCC(c2ccc3c(c2)C2CCN(CC)CC2N3CC)c2[nH]c3ccccc3c2CC1` (stereo not shown) [Example 4, 6-(3-Ethoxycarbonyl-1,2,3,4,5,6,7,8-octahydro-azecino[5,4-b]indole-8-yl)-2,9-diethyl-1,2,3,4,4a,9a-hexahydropyrido[3,4-b]indole], at 20 µg/mL the inhibition on H^+ /K^+ ATPase (20 μg/ml) was 84%. Compound `CCN1CCC2c3cc(C(OCc4ccccc4)c4c(CCN(Cc5ccccc5)Cc5ccccc5)c5ccccc5n4C)ccc3N(CC)C2C1` (stereo not shown) [Example 45, 6-(Benzyloxy-(3-(2-(N,N-dibenzylamino)ethyl)-1-methylindole-2-yl)-methyl)-2,9-diethyl-1,2,3,4,4a,9a-hexahydropyrido[3,4-b]indole] registered an inhibition at 10 µg/mL at H^+ /K^+ ATPase of 65.7%. `CCN1CCC2c3cc(C4Cc5ccccc5CN(C(=O)OCc5ccccc5)CCc5c4[nH]c4ccccc54)ccc3N(CC)C2C1` (stereo not shown) [Example 10, 6-(13-Benzyloxycarbonyl-6,7,12,13,14,15-hexahydrobenzo[h]azecino[5,4-b]indole-6-yl)-2,9-diethyl-1,2,3,4,4a,9a-hexahydro-pyrido[3,4-b]indole] showed an inhibition at 5 µg/mL on H^+ /K^+ ATPase (5 μg/ml) of 98.4%. `CCN1CCC2c3cc(C(O)c4c(CCN(Cc5ccccc5)Cc5ccccc5)c5ccccc5n4S(=O)(=O)c4ccc(C)cc4)ccc3N(CC)C2C1` (stereo not shown) [Example 34, 2,9-Diethyl-6-(3-(2-dibenzylaminoethyl)-1-tosyl-indole-2-yl)hydroxymethyl-1,2,3,4,4a,9a-hexahydro-pyrido[3,4-b]indole] had an inhibition at 10 µg/mL against H^+ /K^+ ATPase of 80.8%.

A word on the inhibition: it is the relative decrease from the control value, in per cent. Higher therefore signals a strong effect.
